From patent publication US20080107625A1, “Inhibitors of Hepatitis C Virus” (Bristol-Myers Squibb Company, priority 2006, published 2008)

Target: HCV NS3/4A protease complex, BMS strain (Hepatitis C virus genotype 1a, UniProt P27958, C1454S/C1711G)
Experiment: FRET peptide assay to monitor HCV NS3/4A proteolytic activity (BMS strain)
Format: biochemical
Conditions: read-out: IC50 against the NS3/4A BMS strain in the enzyme assay
Description: HCV NS3 protease complexes, derived from the BMS strain, H77 strain or J4L6S strain, were generated, as described below. These purified recombinant proteins were generated for use in a homogeneous assay (see below) to provide an indication of how effective compounds of the present disclosure would be in inhibiting HCV NS3 proteolytic activity.
Serum from an HCV-infected patient was obtained from Dr. T. Wright, San Francisco Hospital. […]
In order to monitor HCV NS3/4A protease activity, an NS3/4A peptide substrate was used. […] The peptide also contains a fluorescence donor, EDANS, near one end of the peptide and an acceptor, DABCYL, near the other end. The fluorescence of the peptide is quenched by […] resonance energy transfer (RET) between the donor and the acceptor, but as the NS3 protease cleaves the peptide the products are released from RET quenching and the fluorescence of the donor becomes apparent.
The peptide substrate was incubated with one of the three recombinant NS3/4A protease complexes, in the absence or presence of a compound of the present disclosure. The inhibitory effects of a compound was determined by monitoring the formation of fluorescent reaction product in real time using a Cytofluor Series 4000. […]

Sequence of HCV NS3/4A protease complex, BMS strain (P27958 1027-1711 C1454S/C1711G, one chain of several): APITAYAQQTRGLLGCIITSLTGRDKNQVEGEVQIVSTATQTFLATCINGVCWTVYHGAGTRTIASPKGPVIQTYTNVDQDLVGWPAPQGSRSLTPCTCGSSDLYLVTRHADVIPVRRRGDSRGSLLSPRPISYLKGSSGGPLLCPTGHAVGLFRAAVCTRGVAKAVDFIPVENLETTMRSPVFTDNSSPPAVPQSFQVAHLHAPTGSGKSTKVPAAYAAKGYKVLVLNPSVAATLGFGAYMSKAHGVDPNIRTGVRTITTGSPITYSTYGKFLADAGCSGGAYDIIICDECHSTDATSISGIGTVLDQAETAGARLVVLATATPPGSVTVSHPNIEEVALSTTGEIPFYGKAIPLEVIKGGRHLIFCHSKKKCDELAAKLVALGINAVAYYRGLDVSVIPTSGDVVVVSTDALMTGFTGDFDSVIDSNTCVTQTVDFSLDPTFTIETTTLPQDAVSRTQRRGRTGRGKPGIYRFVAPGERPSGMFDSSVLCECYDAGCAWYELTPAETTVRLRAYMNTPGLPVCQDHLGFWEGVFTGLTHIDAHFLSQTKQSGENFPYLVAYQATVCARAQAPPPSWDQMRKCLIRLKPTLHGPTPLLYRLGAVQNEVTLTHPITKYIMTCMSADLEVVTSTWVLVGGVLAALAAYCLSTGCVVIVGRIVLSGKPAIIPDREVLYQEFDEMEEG

CC(C)(C)OC(=O)N[C@H]1CN(C2CC2)CCC/C=C\C2C[C@@]2(C(=O)NS(=O)(=O)C2CC2)NC(=O)[C@@H]2C[C@@H](Oc3ccccn3)CN2C1=O (stereo partly shown) [Compound 1]
IC50: 98 nM
